“Also recorded” adds a separate entry of the source.
Experiments:
GDH from B. subtilis = GDH from B. subtilis (Bacillus subtilis, UniProt P12310); experiment: Enzymatic activity in eluted test elements after dry storage (GDH); assay type: biochemical; conditions: concentrations larger than 0.3 g/100 g coating composition; test elements stored dry 6 weeks at 45° C.
Description: (§1) Four different reaction films for determining glucose levels were generated and coated on a foil essentially as described in EP Patent No. 0 821 234. The formulation of the first coat/film layer composition is shown below in Table 1.
(§2) The pH was adjusted to 6.8, and the composition was coated as a first film (about 120 μm) on a polycarbonate foil (125 μm). The coated composition was subsequently dried at 50° C.
(§3) The pH was adjusted to 6.8, and the composition was coated as a second film (about 25 μm) onto the first film coated on the foil. The coated composition was subsequently dried at 50° C. Test strips for glucose determination were generated as described in EP Patent No. 0 821 234.
(§4) Test elements were stored in plastic vials in the presence of a drying agent for 6 weeks at 45° C. In a subsequent step, the test field of a test element was eluted by ultra-sonication using elution buffer. Enzymatic activity was determined in the supernatant.

[1] = tested on: diaphorase from B. subtilis; experiment: Enzymatic activity in eluted test elements after dry storage (diaphorase); assay type: biochemical; conditions: test elements stored dry 6 weeks at 45° C.
Description: as §1, §2, §3, §4

[2] = tested on: glucose dehydrogenase and diaphorase; experiment: Blood glucose measurement with stored test elements as indicator for enzymatic activity; assay type: biochemical, B. subtilis; conditions: 1 g/100 g composition; stored 63 days at 4, 24, 35 and 45° C.; normalized to 4° C.
Description: Test elements were stored in plastic vials in the presence of a drying agent for 63 days at 4° C. (KS), 24° C. (RT), 35° C. (DT) and 45° C. (HT). Test elements were used to determine blood glucose levels in a plurality of venous blood samples. The samples were measured with a reference method (Hitachi) in parallel. Results were normalized with respect to the KS stored test elements.

[3] = tested on: Glucose dehydrogenase Mut. 2; experiment: Enzymatic activity of glucose dehydrogenase mutant 2 in solution after storage; assay type: biochemical; conditions: for stabilizing effect in solution: 1-4% (w/v) stabilizer in solution, storage at 4, 35 or 45° C.; for Enzymatic Activity: in solution
Description: Aliquots of a solution including a glucose dehydrogenase mutant 2 as disclosed in WO Patent Application Publication No. 2011/020856 was combined with different amounts of ectoine or hydroxyectoine as indicated below in Table 4.
The aliquots were stored under different storage conditions (8 days, 4° C.; 8 days 35° C., 4 days 4° C. followed by 4 days 45° C.), and the enzymatic activity was determined after the storage.

lactate dehydrogenase = conditions: in solution; Andersson et al. (2000); cited from earlier work
glucose oxidase = glucose oxidase (Aspergillus niger, UniProt P13006); conditions: test elements for electrochemically determining glucose; WO 2007/097653, Loose (2006); cited from earlier work
[4] = tested on: glucose dehydrogenase and diaphorase; experiment: Enzymatic activity in test elements with different buffers; assay type: biochemical, B. subtilis; conditions: 2 g ectoine per 100 g first coating film; phosphate-buffer pH 6.8 or HEPES pH 7.1; 45 days, 45° C. to 4° C.
Excerpt: Test elements were stored and treated essentially as described in Example 3. Different buffers, namely a phosphate-buffer pH 6.8, without stabilizer, a phosphate-buffer pH 6.8, 2 g ectoine per 100 g first coating film, a HEPES buffer pH 7.1, without stabilizer, and a HEPES buffer pH 7.1, 2 g ectoine per 100 g first coating film, were used in the coating compositions as indicated in FIG. 4.

[5] = molecular target: Gluc-DOR (a PQQ-dependent GDH) (Acinetobacter calcoaceticus, UniProt P13650); experiment: Enzymatic activity in test elements including Gluc-DOR; assay type: biochemical; conditions: dry test element; after 3 weeks at 45° C.
Description: (§5) A test element with Gluc-DOR and a mutant thereof (Gluc-DOR 31) was generated as described above in Example 1. The test element was analyzed as described above in Example 2. The determination of the enzymatic activity was carried out using nitrosoaniline as described in EP Patent No. 0 620 283.

Gluc-DOR 31 mutant = experiment: Enzymatic activity in test elements including Gluc-DOR 31 mutant; assay type: biochemical; conditions: dry test element; after 3 weeks at 45° C.
Description: as §5

[6] = stabilizer about 1%, 4 days at 4° C., 4 days at 45° C.
[7] = stabilizer about 1%, 8 days at 4° C.
[8] = stabilizer about 1%, 8 days at 35° C.
[9] = stabilizer about 2%, 4 days at 4° C., 4 days at 45° C.
[10] = stabilizer about 2%, 8 days at 4° C.
[11] = stabilizer about 2%, 8 days at 35° C.
[12] = stabilizer about 4%, 4 days at 4° C., 4 days at 45° C.
[13] = stabilizer about 4%, 8 days at 4° C.
[14] = stabilizer about 4%, 8 days at 35° C.

Chain of glucose oxidase (P13006 17-605, species assumed): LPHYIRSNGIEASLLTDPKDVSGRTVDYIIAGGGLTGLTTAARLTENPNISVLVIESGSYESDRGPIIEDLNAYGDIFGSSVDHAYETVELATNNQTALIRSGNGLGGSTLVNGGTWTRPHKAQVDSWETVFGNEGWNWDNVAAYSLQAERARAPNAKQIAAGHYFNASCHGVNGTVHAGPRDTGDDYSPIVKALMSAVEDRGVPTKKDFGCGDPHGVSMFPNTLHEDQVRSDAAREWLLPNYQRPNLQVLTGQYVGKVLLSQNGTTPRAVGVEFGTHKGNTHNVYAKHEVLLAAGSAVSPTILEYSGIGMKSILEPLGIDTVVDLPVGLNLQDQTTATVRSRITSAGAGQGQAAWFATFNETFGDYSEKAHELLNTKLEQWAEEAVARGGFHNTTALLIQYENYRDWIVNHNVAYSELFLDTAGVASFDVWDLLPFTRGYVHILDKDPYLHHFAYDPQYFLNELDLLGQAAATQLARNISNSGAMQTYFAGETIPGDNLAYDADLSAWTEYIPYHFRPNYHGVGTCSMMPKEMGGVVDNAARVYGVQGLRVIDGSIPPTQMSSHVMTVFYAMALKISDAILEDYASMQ
Chain of GDH from B. subtilis (P12310 whole entry): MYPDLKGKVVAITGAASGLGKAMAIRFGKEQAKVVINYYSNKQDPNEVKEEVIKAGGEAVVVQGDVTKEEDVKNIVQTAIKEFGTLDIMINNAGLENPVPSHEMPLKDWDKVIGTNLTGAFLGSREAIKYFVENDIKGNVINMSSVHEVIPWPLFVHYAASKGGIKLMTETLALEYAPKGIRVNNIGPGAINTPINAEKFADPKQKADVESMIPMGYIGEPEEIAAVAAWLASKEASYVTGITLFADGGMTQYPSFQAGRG
Chain of Gluc-DOR (a PQQ-dependent GDH) (P13650 25-478): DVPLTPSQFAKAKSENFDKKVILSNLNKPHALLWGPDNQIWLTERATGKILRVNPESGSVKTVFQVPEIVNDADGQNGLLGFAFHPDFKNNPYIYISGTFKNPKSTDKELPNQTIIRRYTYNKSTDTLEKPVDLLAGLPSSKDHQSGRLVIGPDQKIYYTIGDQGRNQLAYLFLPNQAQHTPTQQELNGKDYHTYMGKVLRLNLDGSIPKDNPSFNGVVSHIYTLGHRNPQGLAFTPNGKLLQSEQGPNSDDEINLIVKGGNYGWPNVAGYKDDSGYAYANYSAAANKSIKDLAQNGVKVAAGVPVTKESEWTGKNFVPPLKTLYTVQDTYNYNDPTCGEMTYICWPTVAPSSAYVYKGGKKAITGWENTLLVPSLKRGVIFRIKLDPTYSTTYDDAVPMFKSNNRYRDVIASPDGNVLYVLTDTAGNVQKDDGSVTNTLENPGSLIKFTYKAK

Row | SMILES | stabilizing effect (activity versus test elements without stabilizer) (GDH from B. subtilis) | stabilization of diaphorase [1] | preservation of enzymatic activities (measured glucose level) [2] | stabilizing effect in solution [3] | Enzymatic Activity [3, 6] [kU/g] | Enzymatic Activity [3, 7] [kU/g] | Enzymatic Activity [3, 8] [kU/g] | Enzymatic Activity [3, 9] [kU/g] | Enzymatic Activity [3, 10] [kU/g] | Enzymatic Activity [3, 11] [kU/g] | Enzymatic Activity [3, 12] [kU/g] | Enzymatic Activity [3, 13] [kU/g] | Enzymatic Activity [3, 14] [kU/g] | prevention of protein aggregation (lactate dehydrogenase) | stabilization of glucose oxidase (glucose oxidase) | stabilizing activity with different buffers [4] | stabilizing effect on Gluc-DOR [5] | stabilizing effect on Gluc-DOR 31 mutant (Gluc-DOR 31 mutant)
1 | CC1=NC[C@H](O)[C@@H](C(=O)O)N1 [hydroxyectoine] | same effect | stabilized | act as stabilizers | No stabilizing effect | 52 | 208 | 122 | 60 | 221 | 141 | 56 | 207 | 131 | incapable of preventing protein aggregation | Stabilization | – | – | –
2 | CC1=NCC[C@@H](C(=O)O)N1 [ectoine, (S)-2-methyl-3,4,5,6-tetrahydropyrimidine-4-carboxylic acid] | more than 10% | stabilized | act as stabilizers | No stabilizing effect; also recorded: not observed | 60 | 222 | 144 | 59 | 222 | 149 | 57 | 207 | 137 | – | Stabilization | observed independent of the buffer system | stabilizing effect | stabilizing effect
